Measurements reported in patent US20220202940A1, “METHOD OF STABILIZING A DIALYSIS SOLUTION” (Fresenius Medical Care Deutschland GmbH, priority 2018, published 2022).

Conditions: 0.1 mmol/l orthophosphate added to DUOSOL 4551 after the start of the precipitation, 40° C.
Source text: The pH at which a significant precipitation of calcium carbonate starts is a criterion for the stability of the solution and is subsequently called pHmax. […] The time at which the significant precipitation of calcium carbonate starts is subsequently called tG to represent the “time of germination”.
The stabilizing effect of a subsequent addition of phosphate or of a phosphate ester to existing dialysis solutions was examined using the rapid degassing method in a carousel setup. THz rapid degassing method in this variant allows an accelerated aging of dialysis solutions by degassing the CO2 from the bicarbonate buffer. The degassing of CO2 that normally occur slowly during the life of the products can be simulated within a few hours with this experiment setup.
Three separate experiments are carried out for each data point and the mean value is used.
That is, after a specific time period, 2.5 ml of a parent solution having 100 mmol/l glycerophosphate is added to the flasks containing 250 ml DUOSOL 4551, which results in a concentration of 1.0 mmol/l of glycerophosphate in the flask.

## O=P(O)(O)O [orthophosphate]
  dissolution of existing calcium carbonate precipitate: not observed
  effect on precipitation of calcium carbonate: inhibiting effect
